Legend:
5-HT6 Receptor = molecular target: T1, 5-HT6 Receptor (Homo sapiens, UniProt P50406); test: Binding with 5-HT6 receptor (radioligand binding); details: compound concentration 10 uM; ligand 1.5 nM [3H]-LSD
T1 construct: expressed in transfected cells; host or cells: HeLa cells
Protocol: Binding with 5-HT6 Receptor.
The assay was conducted as follows [Monsma F. J., Jr, Shen Y., Ward R. P., Hamblin M. W., and Sibley D. R. Cloning and Expression of a novel serotonin receptor with high affinity for tricyclic psychotropic drugs. Mol. Pharmacol. 1993, 43: 320-327]: • Receptor source: human recombinant HeLa cells; • Ligand: 1.5 nM [3H]-lysergic acid diethylamide (LSD); • Vehicle: 1% DMSO; • Incubation time: 2 hours at 37 C; • Incubation buffer: 50 mM Tris-HCl, pH 7.4, 150 mM NaCl, 2 mM ascorbic acid, 0.001% BSA; • Compound concentration: 10 uM; • Non-specific ligand: 5 uM serotonin (5-HT); • Quantitation method: radioligand binding

[1] = molecular target: butyrylcholine esterase (BuChE) (Homo sapiens, UniProt P06276); test: Butyrylcholine esterase assay; assay type: biochemical; details: compound concentration 10 uM; human serum enzyme; 560 uM S-butyrylthiocholine
Protocol: Butyrylcholine Esterase Assay.
The assay was conducted as follows [Ellman G. L., Courtney K. D., Andres Jr. V., and Featherstone R. N. A new and rapid colorimetric determination of acetylcholinesterase activity.

C57BL/6 mice = test: Object recognition test, recognition of a new localization of an object; assay type: in vivo; details: for object exploration / discrimination ratio compared with control: 0.02 mg/kg; for time exploring the object in a familiar localization / time exploring the object in a new localization: 0.1 mg/kg, tested 48 hours after training
Source text: Object recognition test as a method for research on the effects of some exemplary compounds on memory in mice.
The object recognition test is based on a spontaneous behavior of rats and mice to explore a novel object or a new localization of an object more often than a familiar one. This test was first developed for rats [Ennaceur A., Delacour J. A new one-trial test for neurobiological studies of memory in rats. 1: behavioral data. Behav. Brain Res. 1988; 31:47-59]. Thereafter, various researchers have shown that the test is also suitable for assessing memory performance in mice [e.g., Dodart J. C., Mathis C., Ungerer A. Scopolamine-induced deficits in a two-trial object recognition task in mice. NeuroReport 8 (1997), pp. 1173-1178]. The object recognition test is divided into two tests: a test of recognition of a new localization of an object that is used for research on spatial memory, and a test of recognition of a new object that is used for research on non-spatial memory.
Twenty (20) to twenty-two (22) month-old female mice (old mice) and four (4) to six (6) month-old male mice (young mice) of C57BL/6 strain were used. The animals were housed five per cage under a normal light cycle (12×12, light on at 8:00 AM) and with free access to water and food. The training box was made of white, opaque organic glass with dimensions of 48×38×30 cm. Two kinds of plastic items were used as objects for recognition: a white cylinder (d=4 cm, h=2.8 cm), and a black, three-edged prism (2.5×2.5×3.5 cm and h=3.4 cm). Care was taken to avoid olfactory stimuli by cleaning the objects and box carefully. Two (2) to three (3) min before the mice were placed into the box, the objects and the box were wiped with 85% ethanol. Animals were always placed in the middle of the training box.
Referring again to FIGS. 1A-1B and FIGS. 2A-2C, the mice were injected intraperitoneally with some of the various exemplary compounds shown in the figures, or with the vehicle (solvent) alone in the same volume, one hour before the recall trial.
On the first day of the experiment, the mice were handled in the research room for 20 to 30 min for acclimatization. Then, one by one, the mice were habituated to the training box by being placed into the box without any object for 20 min to explore the box, and were returned to their cages.
On the next day, the same mice were brought into a research room. After 20-30 min of acclimatization, each mouse was placed into an empty box for one minute. Then, the mouse was removed from the training box. Two identical objects (white cylinders) were placed approximately 5 inches distant from two adjacent corners of the box and immediately an animal was returned to the box. The time of exploring of each individual object was registered separately with the help of two electronic stop-watches (to within 0.1 sec). The behavior of each animal was observed through a mirror. Exploration was operationally defined as directing the nose to the object from a distance less than 2 cm, or touching the object with the nose. The duration of the training trial was 5, 10, 15 and 20 minutes.
[…] Testing was performed the same way as training, but one of the two familiar objects was changed to the new object (black prism).
When the recognition of a new localization of an object improved, the same experimental sequence was performed, except that only the localization of one of the familiar objects was changed in the testing session.
A significant variability of object exploration times between animals was measured. The ratio of object-exploration times was calculated as follows: each object-exploration time was divided by the sum of both of the object-exploration times during the same testing session, and expressed in percent: (tnew×100%)/(tfamiliar+tnew)
The data were analyzed using a one-way analysis of variance followed by a Student's t-test.

[2] = tested on: mitochondrial permeability transition pores; details: MPP(+) and beta-amyloid fragment 25-35; cited from earlier work
NMDA receptor = details: read-out: NMDA receptor inhibition constant (Ki); cited from earlier work

Sequence of butyrylcholine esterase (BuChE) (P06276 29-602): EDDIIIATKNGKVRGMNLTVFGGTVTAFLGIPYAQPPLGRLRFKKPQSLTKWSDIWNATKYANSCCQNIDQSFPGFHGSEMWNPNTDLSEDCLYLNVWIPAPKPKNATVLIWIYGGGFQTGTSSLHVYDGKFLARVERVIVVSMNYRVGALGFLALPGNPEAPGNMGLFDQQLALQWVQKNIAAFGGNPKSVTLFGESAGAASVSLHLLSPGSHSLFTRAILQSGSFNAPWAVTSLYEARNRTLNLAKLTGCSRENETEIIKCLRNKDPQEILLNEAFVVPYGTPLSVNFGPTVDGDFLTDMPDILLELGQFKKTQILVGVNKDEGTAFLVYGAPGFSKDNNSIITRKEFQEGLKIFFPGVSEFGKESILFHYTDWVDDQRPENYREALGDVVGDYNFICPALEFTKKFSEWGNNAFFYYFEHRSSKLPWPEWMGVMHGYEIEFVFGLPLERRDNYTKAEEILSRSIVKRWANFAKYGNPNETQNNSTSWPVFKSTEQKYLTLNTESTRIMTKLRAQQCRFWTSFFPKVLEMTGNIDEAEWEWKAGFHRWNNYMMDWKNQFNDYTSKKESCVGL
T1 sequence (P50406 whole entry): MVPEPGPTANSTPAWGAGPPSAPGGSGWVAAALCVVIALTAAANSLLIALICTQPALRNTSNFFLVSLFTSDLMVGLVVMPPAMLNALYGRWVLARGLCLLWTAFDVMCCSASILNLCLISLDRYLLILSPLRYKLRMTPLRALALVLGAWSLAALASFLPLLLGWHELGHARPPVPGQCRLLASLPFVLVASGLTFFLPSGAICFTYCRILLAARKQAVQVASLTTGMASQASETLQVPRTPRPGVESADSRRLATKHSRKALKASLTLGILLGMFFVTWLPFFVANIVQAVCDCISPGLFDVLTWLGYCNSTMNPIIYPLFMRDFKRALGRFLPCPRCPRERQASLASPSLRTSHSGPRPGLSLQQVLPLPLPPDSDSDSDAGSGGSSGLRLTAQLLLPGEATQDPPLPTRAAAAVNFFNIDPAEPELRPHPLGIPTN

Compound | inhibition at 10 µM (5-HT6 Receptor) | inhibition at 10 µM [1] | other results
CCN1CCc2c(c3cc(Cl)ccc3n2CCc2cncc(F)c2)C1 [compound 15] | 99% | 94% | –
Cc1ccc2c(c1)c1c(n2CCc2ccc(C(F)(F)F)nc2)CCN(C)C1 [4-02] | 97% | 95% | –
CCN1CCc2c(c3cc(C)ccc3n2CCc2cncc(F)c2)C1 [compound 12] | 101% | 89% | –
CN1CCc2c(c3cc(Br)ccc3n2CCc2cncc(F)c2)C1 [compound 5] | 103% | 96% | effectiveness as memory stimulating agents relative to memantine (C57BL/6 mice): approximately 25 times; object exploration / discrimination ratio compared with control (C57BL/6 mice): did not differ significantly from the control; time exploring the object in a familiar localization (C57BL/6 mice): approximately 43.0%; time exploring the object in a new localization (C57BL/6 mice): 57+/−4.6%
CN1CCc2c(c3cc(OC(F)(F)F)ccc3n2CCc2cncc(F)c2)C1 [compound 10] | 95% | 100% | –
CN1CCc2c(c3cc(F)ccc3n2CCc2cncc(F)c2)C1 [compound 3] | 99% | 58% | –
COc1ccc2c(c1)c1c(n2CCc2ccc(C(F)(F)F)nc2)CCN(C)C1 [I. 4-06] | 72% | 99% | –
Nc1c2c(nc3ccccc13)CCCC2 [tacrine] | – | – | prevention of neurotoxin-induced opening of mitochondrial pores [2]: prevented
CCN1CCc2c(c3ccccc3n2CCc2cncc(F)c2)C1 [compound 11] | 77% | 66% | –
CCN1CCc2c(c3cc(F)ccc3n2CCc2cncc(F)c2)C1 [compound 14] | 88% | 53% | –
CN1CCc2c(c3cc(F)ccc3n2CCc2ccc(C(F)(F)F)nc2)C1 [4-03] | 72% | 34% | –
CN1CCc2c(c3cc(F)cc(F)c3n2CCc2cncc(F)c2)C1 [compound 8] | 91% | 31% | effectiveness as memory stimulating agents relative to memantine (C57BL/6 mice): approximately 25 times; object exploration / discrimination ratio compared with control (C57BL/6 mice): not different from that of the control mice; time exploring the object in a familiar localization (C57BL/6 mice): 39.2+/−6.9%; time exploring the object in a new localization (C57BL/6 mice): 60.8+/−6.9%
CN1CCc2c(c3cc(F)cc(F)c3n2CCc2ccc(C(F)(F)F)nc2)C1 [4-07] | 79% | 20% | –
Cc1ccc2c(c1)c1c(n2CCc2cncc(F)c2)CCN(C)C1 [compound 2] | 102% | 87% | –
CN1CCc2c(c3cc(Cl)ccc3n2CCc2ccc(C(F)(F)F)nc2)C1 [4-04] | 100% | 97% | –
CCN1CCc2c(c3cc(Cl)ccc3n2CCc2ccc(C(F)(F)F)nc2)C1 [4-08] | 77% | 100% | –
CN1CCc2c(c3cc(C(F)(F)F)ccc3n2CCc2cncc(F)c2)C1 [compound 9] | 103% | 95% | –
COc1ccc2c(c1)c1c(n2CCc2cncc(F)c2)CCN(C)C1 [compound 6] | 96% | 99% | –
CN1CCc2c(c3ccccc3n2CCc2ccc(C(F)(F)F)nc2)C1 [4-01] | 67% | 65% | –
CC12CC3CC(C)(C1)CC(N)(C3)C2 [memantine] | – | – | Ki (NMDA receptor): 500 nM
CN1CCc2c(c3ccccc3n2CCc2cncc(F)c2)C1 [compound 1] | 90% | 75% | –
CC(=O)NCCc1c[nH]c2ccc(O)cc12 [N-acetylserotonin] | – | – | prevention of neurotoxin-induced opening of mitochondrial pores [2]: prevented
CN1CCc2c(c3cc(Cl)ccc3n2CCc2cncc(F)c2)C1 [compound 4] | 103% | 91% | –

Source: patent publication US7935823B2 (priority 2007, dated 2011)
